Data from patent US20230085307A1, “PYRIDAZINONE COMPOUND AND HERBICIDE” (NISSAN CHEMICAL CORPORATION, priority 2019, published 2023).

Key:
barnyard grass [1] = assay: Test Example 3: herbicidal effect by foliage application, Wagner pot (Table 18, symbol H); format: in vivo, barnyard grass (Echinochloa crus-galli); settings: for herbicidal effect on H: barnyard grass: amount of applied herbicide 320 g/ha
In short: (§1)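 Plants were sown in alluvial soil held under 0.1–0.5 cm standing water and grown 14 days in a greenhouse at 25–30 °C. An emulsifiable formulation, water-diluted to the set dose, was then sprayed onto the foliage, and effects were scored three weeks later using previously defined criteria.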

Chinese sprangletop = assay: Test Example 3: herbicidal effect by foliage application, Wagner pot (Table 18, symbol D); format: in vivo, chinese sprangletop (Leptochloa chinensis); settings: for herbicidal effect on D: Chinese sprangletop: amount of applied herbicide 320 g/ha
In short: as §1

rice flat sedge = assay: Test Example 3: herbicidal effect by foliage application, Wagner pot (Table 18, symbol E); format: in vivo, rice flat sedge (Cyperus iria); settings: for herbicidal effect on E: rice flat sedge: amount of applied herbicide 320 g/ha
In short: as §1

southern crabgrass = assay: Test Example 5: herbicidal effect by foliage application, plastic box (Table 20, symbol F); format: in vivo, southern crabgrass (Digitaria ciliaris); settings: foliage application; for F: southern crabgrass, herbicidal effect grade: 320 g/ha
In short: (§2)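 Plants were sown into sterilized diluvial soil under about 1.5 cm cover and kept in a greenhouse at 25° C. to 30° C. Fourteen days on, foliage received an even spray of the diluted emulsion. Herbicidal or crop effect was judged three weeks afterwards.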

green foxtail = assay: Test Example 5: herbicidal effect by foliage application, plastic box (Table 20, symbol G); format: in vivo, green foxtail (Setaria viridis); settings: foliage application; for G: green foxtail, herbicidal effect grade: 320 g/ha
In short: as §2

barnyard grass [2] = assay: Test Example 5: herbicidal effect by foliage application, plastic box (Table 20, symbol H); format: in vivo, barnyard grass (Echinochloa crus-galli); settings: foliage application; for H: barnyard grass, herbicidal effect grade: 320 g/ha
In short: as §2

wild oat = assay: Test Example 5: herbicidal effect by foliage application, plastic box (Table 20, symbol I); format: in vivo, wild oat (Avena fatua); settings: foliage application; for I: wild oat, herbicidal effect grade: 320 g/ha
In short: as §2

blackgrass = assay: Test Example 5: herbicidal effect by foliage application, plastic box (Table 20, symbol J); format: in vivo, blackgrass (Alopecurus myosuroides); settings: foliage application; for J: blackgrass, herbicidal effect grade: 320 g/ha
In short: as §2

Italian ryegrass = assay: Test Example 5: herbicidal effect by foliage application, plastic box (Table 20, symbol K); format: in vivo, Italian ryegrass (Lolium multiflorum); settings: foliage application; for K: Italian ryegrass, herbicidal effect grade: 320 g/ha
In short: as §2

windgrass = assay: Test Example 5: herbicidal effect by foliage application, plastic box (Table 20, symbol L); format: in vivo, windgrass (Apera spica-venti); settings: foliage application; for L: windgrass, herbicidal effect grade: 320 g/ha
In short: as §2

velvetleaf = assay: Test Example 5: herbicidal effect by foliage application, plastic box (Table 20, symbol M); format: in vivo, velvetleaf (Abutilon theophrasti); settings: foliage application; for M: velvetleaf, herbicidal effect grade: 320 g/ha
In short: as §2

redroot pigweed = assay: Test Example 5: herbicidal effect by foliage application, plastic box (Table 20, symbol N); format: in vivo, redroot pigweed (Amaranthus retroflexus); settings: foliage application; for N: redroot pigweed, herbicidal effect grade: 320 g/ha
In short: as §2

lambsquarters = assay: Test Example 5: herbicidal effect by foliage application, plastic box (Table 20, symbol O); format: in vivo, lambsquarters (Chenopodium album); settings: foliage application; for O: lambsquarters, herbicidal effect grade: 320 g/ha
In short: as §2

chickweed = assay: Test Example 5: herbicidal effect by foliage application, plastic box (Table 20, symbol P); format: in vivo, common chickweed (Stellaria media); settings: foliage application; for P: chickweed, herbicidal effect grade: 320 g/ha
In short: as §2

persian speedwell = assay: Test Example 5: herbicidal effect by foliage application, plastic box (Table 20, symbol R); format: in vivo, Persian speedwell (Veronica persica); settings: foliage application; for R: persian speedwell, herbicidal effect grade: 320 g/ha
In short: as §2

[3] = AAH 320 g/ha, evaluated three weeks after application
[4] = AAH 320 g/ha, three weeks after application

SMILES | F: southern crabgrass, herbicidal effect grade (southern crabgrass; three weeks after application) | G: green foxtail, herbicidal effect grade (green foxtail; three weeks after application) | H: barnyard grass, herbicidal effect grade (barnyard grass [2]; three weeks after application) | I: wild oat, herbicidal effect grade (wild oat; three weeks after application) | J: blackgrass, herbicidal effect grade (blackgrass; three weeks after application) | K: Italian ryegrass, herbicidal effect grade (Italian ryegrass; three weeks after application) | L: windgrass, herbicidal effect grade (windgrass; three weeks after application) | M: velvetleaf, herbicidal effect grade (velvetleaf; three weeks after application) | N: redroot pigweed, herbicidal effect grade (redroot pigweed; three weeks after application) | O: lambsquarters, herbicidal effect grade (lambsquarters; three weeks after application) | P: chickweed, herbicidal effect grade (chickweed; three weeks after application) | R: persian speedwell, herbicidal effect grade (persian speedwell; three weeks after application) | herbicidal effect on H: barnyard grass (barnyard grass [1]) | herbicidal effect on D: Chinese sprangletop (Chinese sprangletop) | herbicidal effect on E: rice flat sedge (rice flat sedge) | further results
CCOc1ccccc1-c1sc2cc(O)ccc2c1-c1c(O)c(C)nn(C)c1=O [3-097] | 4 (Herbicidal rate of 70% or more and less than 90%) | 5 (Herbicidal rate of 90% or more (almost completely withered)) | 2 (Herbicidal rate of 20% or more and less than 40%) | 1 (Herbicidal rate of 5% or more and less than 20%) | 0 (Herbicidal rate of 5% or less (almost no effect)) | 0 (Herbicidal rate of 5% or less (almost no effect)) | 2 (Herbicidal rate of 20% or more and less than 40%) | 3 (Herbicidal rate of 40% or more and less than 70%) | 4 (Herbicidal rate of 70% or more and less than 90%) | 3 (Herbicidal rate of 40% or more and less than 70%) | 3 (Herbicidal rate of 40% or more and less than 70%) | 3 (Herbicidal rate of 40% or more and less than 70%) | – | – | – | herbicidal effect on barnyard grass (H) (barnyard grass [1]; 320 g/ha): 4 (Herbicidal rate of 70% or more and less than 90%); herbicidal effect on Chinese sprangletop (D) (Chinese sprangletop; 320 g/ha): 4 (Herbicidal rate of 70% or more and less than 90%); herbicidal effect on rice flat sedge (E) (rice flat sedge; 320 g/ha): 3 (Herbicidal rate of 40% or more and less than 70%)
COc1ccccc1-c1sc2ccc(F)cc2c1-c1c(O)c(C)nn(Cc2ccccc2)c1=O [2-438] | 0 (Herbicidal rate of 5% or less (almost no effect)) | 0 (Herbicidal rate of 5% or less (almost no effect)) | 0 (Herbicidal rate of 5% or less (almost no effect)) | 0 (Herbicidal rate of 5% or less (almost no effect)) | 0 (Herbicidal rate of 5% or less (almost no effect)) | 0 (Herbicidal rate of 5% or less (almost no effect)) | 0 (Herbicidal rate of 5% or less (almost no effect)) | 0 (Herbicidal rate of 5% or less (almost no effect)) | 3 (Herbicidal rate of 40% or more and less than 70%) | 0 (Herbicidal rate of 5% or less (almost no effect)) | 0 (Herbicidal rate of 5% or less (almost no effect)) | 0 (Herbicidal rate of 5% or less (almost no effect)) | 2 (Herbicidal rate of 20% or more and less than 40%) | 0 (Herbicidal rate of 5% or less (almost no effect)) | 2 (Herbicidal rate of 20% or more and less than 40%) | –
Cc1nn(C)c(=O)c(-c2c(-c3ccc(Oc4ncc(C(F)(F)F)cc4Cl)cc3)sc3ccc(F)cc23)c1O [2-467] | 0 (Herbicidal rate of 5% or less (almost no effect)) | 2 (Herbicidal rate of 20% or more and less than 40%) | 1 (Herbicidal rate of 5% or more and less than 20%) | 0 (Herbicidal rate of 5% or less (almost no effect)) | 0 (Herbicidal rate of 5% or less (almost no effect)) | 0 (Herbicidal rate of 5% or less (almost no effect)) | 5 (Herbicidal rate of 90% or more (almost completely withered)) | 1 (Herbicidal rate of 5% or more and less than 20%) | 3 (Herbicidal rate of 40% or more and less than 70%) | 4 (Herbicidal rate of 70% or more and less than 90%) | 3 (Herbicidal rate of 40% or more and less than 70%) | 4 (Herbicidal rate of 70% or more and less than 90%) | 3 (Herbicidal rate of 40% or more and less than 70%) | 4 (Herbicidal rate of 70% or more and less than 90%) | 4 (Herbicidal rate of 70% or more and less than 90%) | –
CC(=O)COc1c(C)nn(C)c(=O)c1-c1c(-c2ccc(OC(F)F)cc2)sc2ccc(F)cc12 [2-304] | – | – | – | – | – | – | – | – | – | – | – | – | 3 (Herbicidal rate of 40% or more and less than 70%) | 3 (Herbicidal rate of 40% or more and less than 70%) | 3 (Herbicidal rate of 40% or more and less than 70%) | F: southern crabgrass, herbicidal effect (criteria 0-5) (southern crabgrass; [3]): 0 (Herbicidal rate of 5% or less (almost no effect)); G: green foxtail, herbicidal effect (criteria 0-5) (green foxtail; [3]): 0 (Herbicidal rate of 5% or less (almost no effect)); H: barnyard grass, herbicidal effect (criteria 0-5) (barnyard grass [2]; [3]): 0 (Herbicidal rate of 5% or less (almost no effect)); I: wild oat, herbicidal effect (criteria 0-5) (wild oat; [3]): 0 (Herbicidal rate of 5% or less (almost no effect)); J: blackgrass, herbicidal effect (criteria 0-5) (blackgrass; [3]): 0 (Herbicidal rate of 5% or less (almost no effect)); K: Italian ryegrass, herbicidal effect (criteria 0-5) (Italian ryegrass; [3]): 0 (Herbicidal rate of 5% or less (almost no effect)); L: windgrass, herbicidal effect (criteria 0-5) (windgrass; [3]): 0 (Herbicidal rate of 5% or less (almost no effect)); M: velvetleaf, herbicidal effect (criteria 0-5) (velvetleaf; [3]): 0 (Herbicidal rate of 5% or less (almost no effect)); N: redroot pigweed, herbicidal effect (criteria 0-5) (redroot pigweed; [3]): 5 (Herbicidal rate of 90% or more (almost completely withered)); O: lambsquarters, herbicidal effect (criteria 0-5) (lambsquarters; [3]): 3 (Herbicidal rate of 40% or more and less than 70%); P: chickweed, herbicidal effect (criteria 0-5) (chickweed; [3]): 5 (Herbicidal rate of 90% or more (almost completely withered)); R: persian speedwell, herbicidal effect (criteria 0-5) (persian speedwell; [3]): 5 (Herbicidal rate of 90% or more (almost completely withered))
COc1nn(C)c(=O)c(-c2c(-c3cccc(OC(F)(F)F)c3)sc3ccccc23)c1O [1-160] | – | – | – | – | – | – | – | – | – | – | – | – | – | – | – | herbicidal effect on H (barnyard grass), rating 0-5 (barnyard grass [1]; 320 g/ha): 0 (Herbicidal rate of 5% or less (almost no effect)); herbicidal effect on D (Chinese sprangletop), rating 0-5 (Chinese sprangletop; 320 g/ha): 1 (Herbicidal rate of 5% or more and less than 20%); herbicidal effect on E (rice flat sedge), rating 0-5 (rice flat sedge; 320 g/ha): 4 (Herbicidal rate of 70% or more and less than 90%); F: southern crabgrass, herbicidal effect (southern crabgrass; [4]): 0 (Herbicidal rate of 5% or less (almost no effect)); G: green foxtail, herbicidal effect (green foxtail; [4]): 1 (Herbicidal rate of 5% or more and less than 20%); H: barnyard grass, herbicidal effect (barnyard grass [2]; [4]): 1 (Herbicidal rate of 5% or more and less than 20%); I: wild oat, herbicidal effect (wild oat; [4]): 0 (Herbicidal rate of 5% or less (almost no effect)); J: blackgrass, herbicidal effect (blackgrass; [4]): 0 (Herbicidal rate of 5% or less (almost no effect)); K: Italian ryegrass, herbicidal effect (Italian ryegrass; [4]): 1 (Herbicidal rate of 5% or more and less than 20%); L: windgrass, herbicidal effect (windgrass; [4]): 0 (Herbicidal rate of 5% or less (almost no effect)); M: velvetleaf, herbicidal effect (velvetleaf; [4]): 1 (Herbicidal rate of 5% or more and less than 20%); N: redroot pigweed, herbicidal effect (redroot pigweed; [4]): 5 (Herbicidal rate of 90% or more (almost completely withered)); O: lambsquarters, herbicidal effect (lambsquarters; [4]): 1 (Herbicidal rate of 5% or more and less than 20%); P: chickweed, herbicidal effect (chickweed; [4]): 4 (Herbicidal rate of 70% or more and less than 90%); R: persian speedwell, herbicidal effect (persian speedwell; [4]): 0 (Herbicidal rate of 5% or less (almost no effect))
